# Measurements reported in US20060099170A1, “Compositions for inducing increased levels of beta-chemokines and methods of use therefor” (priority 2002, published 2006).
# Read-outs that look alike come from different tables or passages of the source.
# How the values were obtained:
# [1] = system: CD8 lymphocytes; assay: β-chemokine levels (ELISA) in cultures of purified activated CD8 lymphocytes; type: cell-based, human
# [2] = system: CD8 lymphocytes; type: cell-based, human
# Method: (§1) Cell proliferation was measured by the trypan blue staining viability test, [^3H]thymidine incorporation in DNA, and the 3-(4,5-dimethylthiazol-2-yl)-2,5-diphenyl tetrazolium bromide (MTT) assay (Roche).
# The impact of cell cycle arrest in β-chemokine levels was evaluated by measuring chemokine levels in supernatants of cell cultures containing compounds known to cause cell cycle arrest. Levels of the β-chemokines RANTES, MIP-1α, and MIP-1β were measured by using commercial ELISA kits (R &D Systems). Cell cycle arrest in G1 was induced by culturing of the cells in the presence of aphidicolin (APH), sodium butyrate (SB), hydroxyurea (HU), roscovitine (RC), or olomoucine (OL). Arrest in late S phase was induced by culture of cells in the presence of resveratrol. G2 cycle arrest was induced by the compounds nocodazole and Colcemid. All compounds were purchased from Sigma except RC and OL, which were from Calbiochem. Arrest of cell cycle progression in the presence of G1 cytostatic agents was measured by propidium iodide staining followed by fluorescence-activated cell sorter (FACS) analysis (Noguchi, et al., 1991). This method may be used to test any compound for ability to arrest the G1 phase in a cell cycle.
# In the experiments described thus far, total PBMCs had been used. […] Negatively selected CD8^+ lymphocytes were activated by anti-CD3 plus IL-2 treatment for 3 days. Activated cells were cultured in the presence of IL-2 and HU (100 and 200 μM) for 24 or 48 h, time points at which cell proliferation and supernatant chemokine levels were assayed. Cell proliferation was determined by trypan blue staining, [^3H]thymidine incorporation in DNA, and percentage of cells in S phase as assessed by propidium iodide staining (FIG. 4). […] Similarly, the percentage of cells in S phase increased in the absence of HU, whereas it decreased in its presence. […]
# To investigate whether increased levels of supernatant chemokines upon cell cycle arrest are cell cycle phase-specific, the effect of G2 arrest in chemokine production next was evaluated. […]
# [3] = system: activated PBMCs; assay: Cell number / proliferation of activated PBMCs (trypan blue); type: cell-based, human
# Method: as §1
# To this end, β-chemokine levels (production or availability) by activated PBMCs cultured in the presence of HU was investigated. HU is a G1 cytostatic drug that, by depleting intracellular nucleotide pools, arrests cell cycle progression in late G1 (Lori, et al., 1994). […] In the representative experiment depicted in FIG. 2, day 8 chemokine levels in cultures containing 100 μM HU were increased 3.4-fold for RANTES, 5.4-fold for MIP-1α, and 4-fold for MIP-1β compared with the untreated control. Because HU inhibits lymphocyte proliferation, chemokine values also were expressed as chemokine amount per viable cell. As expected, cell numbers were lower in the presence of the drug (FIG. 2C).
# The agents evaluated were SB, APH, RC, and OL. SB and APH arrest the cell cycle in early and late G1, respectively (Korin, et al., 1998; Koostra, et al., 2000). RC and OL are purine-derivative drugs that arrest cell cycle progression in late G1 through inhibition of cyclin-dependent kinases (CDKs) (Gray, et al., 1999). […] The number of viable cells and chemokine levels are depicted. […]
# [4] = system: activated PBMCs; assay: β-chemokine levels (ELISA) in supernatants of activated PBMCs cultured with cell cycle arresting compounds; type: cell-based, human
# [5] = system: HIV-1 ADA; assay: Antiviral activity of TAK-779 with or without RAPA in PBMCs (p24); type: cell-based
# Method: For infection of PBMCs, fresh donor PBMCs were cultured for 7 days in medium containing IL-2. On day 7, cells were exposed to the virus for 3 h. Nonadsorbed virus was removed by washing cells with PBS three times. Infected cells were cultured in IL-2 medium. Infection of MDMs was carried out as described before (Pemo, et al. 1993). Unless otherwise indicated, PBMCs were infected by using a moi of 0.001, and monocyte-derived macrophages (MDMs) were infected by using a moi of 0.002. Virus growth was monitored in culture supernatants by measuring p24 antigen levels by ELISA (NEN) or by measuring viral RT activity in an RT assay (Willey, et al., 1988).
# To test this hypothesis, donor PBMCs were cultured in IL-2 medium in the absence or presence of RAPA (1, 10, and 100 nM). […] Infected cells were cultured in the presence of RAPA (same concentration as during pretreatment) plus 0.1 nM TAK-779. Virus production was determined 7 days after infection (FIG. 11).
# [6] = system: HIV; assay: Cyclic therapy trial with HU during off-ARV periods: viral load; type: in vivo; details: for Viral load: 7 days on ARV's alternated by 14 days off ARV's but on HU
# Source text: (§2) The protocol used in the present invention expands on the NIH's concept of Cyclic Therapy. Cyclic therapy is a strategy in which patients can maintain viral suppression despite alternating between 7 days of taking ARV medications and 7 days of taking no medications. Compared to the NIH trail of short cycle of 7 days intermittently off therapy, in our trial, the G1 cycle agent HU is being used to maintain viral suppression during an extended off medication cycle of 14-28 days. The off period is followed by 7 days of combination antiretroviral therapy. This has allowed study participants to be on ⅔ fewer medications but still maintain viral control and immune reconstitution.
# (§3) Four patients are enrolled in the trial. Patients in this study have benefited from decreased drug related toxicities, relief from difficult financial sacrifices to stay on ARV's, and improved adherence to medications.
# [7] = system: HIV-1 BaL; assay: HIV-1-suppressive activity of supernatants from HU-treated PBMCs, infected PBMCs, p24; type: cell-based; details: 100 μM HU in fresh medium, day 7 after infection
# Method: The antiviral activity of the supernatants collected from cultures of PBMCs that had been exposed to 100 μM HU for 7 days [supernatants referred to as conditioned medium (CM)] was evaluated in PBMCs infected with HIV-1 BaL and HIV-1 IIIb. Briefly, PHA-activated PBMCs were infected with each virus at 100 tissue culture 50% infective dose units (TCID50)/10^6 PBMCs or 10 TCID50/10^6 PBMCs for 2 h at 37° C. Infected cells were cultured in IL-2 medium alone, IL-2 medium with 100 μM HU, IL-2 medium containing 50% supernatant from HU-treated PBMCs (CM/HU), or IL-2 medium containing 50% supernatant from control-treated PBMCs (CM/control). On day 3 after infection, culture medium was replaced with fresh medium of the same kind as on day 1. Viral growth (measured by p24 levels in the supernatant) and cell viability (assayed by MTT) were determined on day 7 after infection.
# These culture supernatants were referred to as CM/HU. Culture supernatants from activated PBMCs cultured under the same conditions in the absence of HU (CM/control) also were harvested.
# The antiviral activity of the CM was evaluated in the infection of PBMCs with HIV-1 BaL (a prototype R5-using virus) and HIV-1 IIIb (a prototype X4-using virus). […] Virus replication and cell viability were measured on day 7 after infection.
# [8] = system: CD4; assay: Cyclic therapy trial with HU during off-ARV periods: absolute CD4 count; type: in vivo, human; details: 7 days on ARV's alternated by 14 days off ARV's but on HU
# Source text: as §2, §3
# [9] = at G1 cytostatic concentrations of the drug, PHA-activated PBMCs
# [10] = 100 μM HU, day 8, levels as ng/ml
smiles,measurement,setting,value
CN[C@H]1CCc2cc(OC)c(OC)c(OC)c2-c2ccc(OC)c(=O)cc21 [Colcemid],chemokine content on G2 cycle arrest,"[1]; same as nocodazole (lower than untreated), data not shown",same results
COC(=O)Nc1nc2ccc(C(=O)c3cccs3)cc2[nH]1 [nocodazole],chemokine content,"[1]; 0.01 μg/ml nocodazole, 48 h, G2 arrest",lower than in the untreated controls
same,cell cycle distribution,"[2]; 0.01 μg/ml nocodazole, 48 h",accumulation of cells in G2
"C[C@@]1(CO)[C@H](O)CC[C@@]2(C)[C@H]1CC[C@H]1C[C@@H]3C[C@@]12CC[C@]3(O)CO [APH, aphidicolin]",cell proliferation,[3]; 0.5 μM APH,reduced cell proliferation
same,chemokine values,"[4]; 0.5 μM APH, PHA-activated PBMCs",Increased chemokine values
Oc1ccc(C=Cc2cc(O)cc(O)c2)cc1 [resveratrol],chemokine levels on cell cycle arrest in late S,"[1]; 10 μM resveratrol, data not shown",lower than the untreated control
"CC[C@H](CO)Nc1nc(NCc2ccccc2)c2ncn(C(C)C)c2n1 [RC, roscovitine]",chemokine levels,[4]; [9],increased chemokine levels
"CCCC(=O)[O-].[Na+] [SB, sodium butyrate]",chemokine levels,[4]; [9],increased chemokine levels
Cc1ccc(-c2ccc3c(c2)C=C(C(=O)Nc2ccc(C[N+](C)(C)C4CCOCC4)cc2)CCC3)cc1.[Cl-] [TAK-779],inhibition of virus replication,"[5]; 0.1 nM TAK-779, absence of RAPA, day 7",21%
same,virus inhibition due to TAK-779,[5]; 0.1 nM TAK-779 in presence of 1 nM RAPA,74.5%
same,virus inhibition due to TAK-779,[5]; 0.1 nM TAK-779 in presence of 10 nM RAPA,89%
same,virus inhibition due to TAK-779,[5]; 0.1 nM TAK-779 in presence of 100 nM RAPA,96%
"NC(=O)NO [HU, hydroxyurea]",Viral load,"[6]; Patient 1, 6 wks",72 Copies/ml
same,Viral load,"[6]; Patient 1, 9 wks",158 Copies/ml
same,Viral load,"[6]; Patient 1, 12 wks",114 Copies/ml
same,Viral load,"[6]; Patient 1, 18 wks",973 Copies/ml
same,Viral load,"[6]; Patient 1, column head 3 wks off continuous therapy",0 Copies/ml
same,Viral load,"[6]; Patient 1, column head 15 wks",322 Copies/ml
same,Viral load,"[6]; Patient 1, column head 21 wks",0 Copies/ml
same,Viral load,"[6]; Patient 2, 3 wks",0 c/ml
same,Viral load,"[6]; Patient 2, 6 wks",0 c/ml
same,Viral load,"[6]; Patient 2, 9 wks",0 c/ml
same,Viral load,"[6]; Patient 2, 12 wks",0 c/ml
same,Viral load,"[6]; Patient 2, 18 wks",0 c/ml
same,Viral load,"[6]; Patient 2, column head 15 wks",0 c/ml
same,Viral load,"[6]; Patient 3, 3 wks",0 c/ml
same,Viral load,"[6]; Patient 3, 6 wks",0 c/ml
same,Viral load,"[6]; Patient 3, 9 wks",0 c/ml
same,Viral load,"[6]; Patient 3, 12 wks",0 c/ml
same,viral suppression despite discontinuation of primary anti-retroviral drugs,"[6]; all three patients, at least 3 cycles of treatment",persistent viral suppression
same,MIP-1α level increase,"[1]; 100 μM HU, 48 h",3.7 fold
same,MIP-1β level increase,"[1]; 100 μM HU, 48 h",4.7 fold
same,RANTES level increase,"[1]; 100 μM HU, 48 h",1.9 fold
same,chemokine production levels,"[1]; 200 μM HU, 48 h, compared with 100 μM",Slightly lower increases
same,inhibition of HIV-1 BaL replication,[7],< 10%
same,inhibition at 100 µM,"[7]; Human immunodeficiency virus 1, BAL, PBMC, 168 h, read-out: inhibition of HIV-1 BaL replication",8%
same,cell numbers,"[3]; PHA-activated PBMCs in presence of HU, trypan blue",lower
same,Absolute CD4 count,"[8]; Patient 1, 3 wks",377
same,Absolute CD4 count,"[8]; Patient 1, column head 21 wks",518
same,Absolute CD4 count,"[8]; Patient 2, 3 wks",1256
same,Absolute CD4 count,"[8]; Patient 2, 18 wks",973
same,Absolute CD4 count,"[8]; Patient 3, 3 wks",934
same,Absolute CD4 count,"[8]; Patient 3, 12 wks",995
same,chemokine levels,[4],increased chemokine levels
same,MIP-1α level increase compared with untreated control,[4]; [10],5.4 fold
same,MIP-1β level increase compared with untreated control,[4]; [10],4 fold
same,RANTES level increase compared with untreated control,[4]; [10],3.4 fold
same,"MIP-1α level increase, ng per 10^6 cells","[4]; 100 μM HU, per viable cell",25.4 fold
same,"MIP-1β level increase, ng per 10^6 cells","[4]; 100 μM HU, per viable cell",18.4 fold
same,"RANTES level increase, ng per 10^6 cells","[4]; 100 μM HU, per viable cell",16.2 fold
same,"concentrations (ng/ml) of RANTES, MIP-1α, and MIP-1β in the culture supernatants","[4]; PHA-activated PBMCs, HU for 14 days, dose-dependent",increased concentrations
same,percentage of cells in S phase,"[2]; HU 100 and 200 μM, propidium iodide",decreased
same,cell number and thymidine incorporation between 24 and 48 h,"[2]; HU 100 and 200 μM, doubled in absence of HU",remained constant or decreased
